Data: ChEMBL document CHEMBL5729699, “Polypeptide compound, pharmaceutical composition, preparation method and application thereof” (2023)

Legend:
Cytochrome P450 2D6 = Cytochrome P450 2D6 (Homo sapiens, UniProt P10635); experiment: (§1) Inhibition of Cytochrome P450 Oxidase: The human liver microsomes (0.253 mg/mL protein) containing cytochrome P450, test compounds (0.05-50 μM), CYPs substrates (10 μM […], 5 μM diclofenac, 30 μM mephenytoin, 5 μM dextromethorphan hydrobromide, 2 μM midazolam), 1.0 mM NADP were incubated at 37° C. for 10 minutes. Naflavone, sulfafenpyrazole, N-3-benzylnivan, quinidine, and ketoconazole were used as reference inhibitors.
Cytochrome P450 2D6, sequence (P10635 whole entry): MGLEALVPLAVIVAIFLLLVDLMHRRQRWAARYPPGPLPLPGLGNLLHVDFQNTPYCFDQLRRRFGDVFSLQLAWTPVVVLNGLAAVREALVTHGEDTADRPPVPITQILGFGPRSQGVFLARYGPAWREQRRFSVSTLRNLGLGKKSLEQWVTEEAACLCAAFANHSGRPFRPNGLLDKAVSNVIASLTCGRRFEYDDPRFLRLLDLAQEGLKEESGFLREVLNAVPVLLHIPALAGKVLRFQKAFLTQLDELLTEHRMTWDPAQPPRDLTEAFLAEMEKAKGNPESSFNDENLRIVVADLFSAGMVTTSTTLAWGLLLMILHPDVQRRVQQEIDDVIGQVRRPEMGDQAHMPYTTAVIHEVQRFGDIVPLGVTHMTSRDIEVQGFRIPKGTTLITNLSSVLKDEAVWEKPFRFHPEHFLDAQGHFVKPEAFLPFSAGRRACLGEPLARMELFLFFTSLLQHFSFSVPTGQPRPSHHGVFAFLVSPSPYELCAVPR

Cytochrome P450 2C9 = Cytochrome P450 2C9 (Homo sapiens, UniProt P11712); experiment: as §1
Cytochrome P450 2C9, sequence (P11712 whole entry): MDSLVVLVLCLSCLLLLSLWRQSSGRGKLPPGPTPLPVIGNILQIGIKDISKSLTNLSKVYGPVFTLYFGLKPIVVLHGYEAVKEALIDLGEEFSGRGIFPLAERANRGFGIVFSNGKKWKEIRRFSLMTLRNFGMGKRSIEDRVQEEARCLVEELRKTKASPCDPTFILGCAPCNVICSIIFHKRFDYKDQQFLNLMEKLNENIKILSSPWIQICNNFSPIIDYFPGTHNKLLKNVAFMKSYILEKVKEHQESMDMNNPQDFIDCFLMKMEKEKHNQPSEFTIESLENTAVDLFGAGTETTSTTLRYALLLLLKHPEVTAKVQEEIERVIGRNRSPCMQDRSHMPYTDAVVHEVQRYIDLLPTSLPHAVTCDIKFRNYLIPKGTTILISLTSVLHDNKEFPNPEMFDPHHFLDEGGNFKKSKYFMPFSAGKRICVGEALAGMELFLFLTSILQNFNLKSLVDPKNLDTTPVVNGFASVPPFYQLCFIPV

Cytochrome P450 3A4 = Cytochrome P450 3A4 (Homo sapiens, UniProt P08684); experiment: as §1
Cytochrome P450 3A4, sequence (P08684 whole entry): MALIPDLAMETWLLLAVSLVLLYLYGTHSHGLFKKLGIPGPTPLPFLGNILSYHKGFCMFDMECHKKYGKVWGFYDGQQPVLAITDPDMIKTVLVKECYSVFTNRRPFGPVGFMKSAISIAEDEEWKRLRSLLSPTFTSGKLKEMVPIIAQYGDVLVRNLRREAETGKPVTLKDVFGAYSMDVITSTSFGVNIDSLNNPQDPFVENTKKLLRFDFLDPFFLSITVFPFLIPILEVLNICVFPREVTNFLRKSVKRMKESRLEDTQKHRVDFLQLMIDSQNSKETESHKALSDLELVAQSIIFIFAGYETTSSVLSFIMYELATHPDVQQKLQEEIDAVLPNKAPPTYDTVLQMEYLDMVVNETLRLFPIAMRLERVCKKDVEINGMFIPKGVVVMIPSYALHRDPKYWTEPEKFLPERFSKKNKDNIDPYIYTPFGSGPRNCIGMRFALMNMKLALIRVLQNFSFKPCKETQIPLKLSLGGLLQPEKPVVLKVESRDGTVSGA

Cytochrome P450 1A2 = target: T1, Cytochrome P450 1A2 (Homo sapiens, UniProt P05177); experiment: as §1
T1 sequence (P05177 whole entry): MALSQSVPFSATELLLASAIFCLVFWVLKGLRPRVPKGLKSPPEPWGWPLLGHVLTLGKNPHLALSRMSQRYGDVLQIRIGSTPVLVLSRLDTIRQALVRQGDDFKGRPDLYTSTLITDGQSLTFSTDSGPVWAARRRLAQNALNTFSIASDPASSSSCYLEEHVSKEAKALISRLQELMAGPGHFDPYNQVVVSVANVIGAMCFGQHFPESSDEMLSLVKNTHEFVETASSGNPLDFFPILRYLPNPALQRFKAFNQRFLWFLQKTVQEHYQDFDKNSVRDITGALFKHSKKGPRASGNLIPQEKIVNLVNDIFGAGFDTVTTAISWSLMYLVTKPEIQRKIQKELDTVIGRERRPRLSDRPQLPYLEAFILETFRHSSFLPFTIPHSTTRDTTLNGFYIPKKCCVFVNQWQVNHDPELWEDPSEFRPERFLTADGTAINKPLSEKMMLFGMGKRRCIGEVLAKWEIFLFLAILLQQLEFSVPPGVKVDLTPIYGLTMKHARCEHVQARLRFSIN

Cytochrome P450 2C19 = Cytochrome P450 2C19 (Homo sapiens, UniProt P33261); experiment: as §1
Cytochrome P450 2C19, sequence (P33261 whole entry): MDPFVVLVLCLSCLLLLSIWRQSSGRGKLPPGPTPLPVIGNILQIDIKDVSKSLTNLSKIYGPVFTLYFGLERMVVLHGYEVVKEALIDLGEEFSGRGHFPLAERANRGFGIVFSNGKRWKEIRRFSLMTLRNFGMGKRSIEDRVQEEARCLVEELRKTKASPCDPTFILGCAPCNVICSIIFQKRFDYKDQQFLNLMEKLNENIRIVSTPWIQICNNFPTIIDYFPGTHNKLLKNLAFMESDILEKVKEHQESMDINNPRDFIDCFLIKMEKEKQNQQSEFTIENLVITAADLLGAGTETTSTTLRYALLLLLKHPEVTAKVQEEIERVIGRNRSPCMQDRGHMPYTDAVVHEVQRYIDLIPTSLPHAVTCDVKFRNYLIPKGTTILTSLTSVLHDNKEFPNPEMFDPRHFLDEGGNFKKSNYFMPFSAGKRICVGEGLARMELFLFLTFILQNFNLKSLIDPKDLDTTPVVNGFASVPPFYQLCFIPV

[1] = target: Kappa-type opioid receptor (Homo sapiens, UniProt P41145); experiment: Agonistic activity of the kappa-opioid receptors: Forskolin can stimulate the release of cAMP from HEK293 cells with high expression of human κ (or μ, or δ)-opioid receptors. […] The efficacy of the compounds of the invention as κ-opioid receptor agonists was determined by measuring the ability of the compounds of Examples to inhibit adenylate cyclase activity.Cell culture: The HEK293 cell line highly expressing human κ (or μ, or δ)-opioid receptor were cultured in DMEM medium containing 10% FBS.Stimulation: the test compound was 4-fold diluted in a gradient manner to obtain 10 concentrations, and 50 nl of each was transferred to a 384-well plate, and then 10 nl Forskolin was added; the cells were digested, re-suspended, and counted; and then 10 μl of cell suspension (5×10^5 cell/mL) was added, and the cells were mixed gently, and incubated at 23° C. for 60 minutes.Detection: cAMP Assay Kit (Cisbio) was used, cAMPD2 and Anti-cAMP conjugate were added, and the resultant mixture was incubated for 1 h at room temperature. The plate was read using envision (Perkin Elmer) and EC50 was obtained by means of fitting with a four-parameter equation.; type: cell-based
Kappa-type opioid receptor, sequence (P41145 whole entry): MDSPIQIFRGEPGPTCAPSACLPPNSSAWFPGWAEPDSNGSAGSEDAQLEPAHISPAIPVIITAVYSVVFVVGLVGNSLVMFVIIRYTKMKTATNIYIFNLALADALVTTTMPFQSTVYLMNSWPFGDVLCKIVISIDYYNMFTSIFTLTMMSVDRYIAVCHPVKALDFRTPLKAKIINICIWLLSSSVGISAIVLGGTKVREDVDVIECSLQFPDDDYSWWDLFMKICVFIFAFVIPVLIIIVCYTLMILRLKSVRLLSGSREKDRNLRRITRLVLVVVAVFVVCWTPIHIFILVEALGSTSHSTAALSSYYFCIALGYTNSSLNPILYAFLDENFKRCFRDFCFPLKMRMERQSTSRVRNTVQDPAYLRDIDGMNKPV

SMILES: CC(C)C[C@@H](NC(=O)[C@@H](Cc1ccccc1)NC(=O)[C@H](N)Cc1ccccc1)C(=O)N[C@H](CCCCN)C(=O)N1CC[C@@H](B(O)O)C1
- IC50 (Cytochrome P450 2D6): > 50 µM
- IC50 (Cytochrome P450 2C9): > 50 µM
- IC50 (Cytochrome P450 3A4): > 50 µM
- IC50 (Cytochrome P450 1A2): > 50 µM
- IC50 (Cytochrome P450 2C19): > 50 µM

SMILES: CC(C)C[C@@H](NC(=O)[C@@H](Cc1ccccc1)NC(=O)[C@H](N)Cc1ccccc1)C(=O)N[C@H](CCCCN)C(=O)N1CC=C(B(O)O)C1
- IC50 (Cytochrome P450 2D6): > 50 µM
- IC50 (Cytochrome P450 2C9): > 50 µM
- IC50 (Cytochrome P450 3A4): > 50 µM
- IC50 (Cytochrome P450 1A2): > 50 µM
- IC50 (Cytochrome P450 2C19): > 50 µM

SMILES: CC(C)C[C@@H](NC(=O)[C@@H](Cc1ccccc1)NC(=O)[C@H](N)Cc1ccccc1)C(=O)N[C@H](CCCCN)C(=O)N1CCC(N)(B(O)O)CC1
- IC50 (Cytochrome P450 2D6): > 50 µM
- IC50 (Cytochrome P450 2C9): > 50 µM
- IC50 (Cytochrome P450 3A4): > 50 µM
- IC50 (Cytochrome P450 1A2): > 50 µM
- IC50 (Cytochrome P450 2C19): > 50 µM

SMILES: CC(C)C[C@@H](NC(=O)[C@@H](Cc1ccccc1)NC(=O)[C@H](N)Cc1ccccc1)C(=O)N[C@H](CCCCN)C(=O)N1CCC[C@H]1B(O)O
- IC50 (Cytochrome P450 2D6): > 50 µM
- IC50 (Cytochrome P450 2C9): > 50 µM
- IC50 (Cytochrome P450 3A4): > 50 µM
- IC50 (Cytochrome P450 1A2): > 50 µM
- IC50 (Cytochrome P450 2C19): > 50 µM
- EC50 [1]: 1 pM
